Assay results published in patent US20150203512.
Read-outs that look alike come from different tables or passages of the source.

Settings: rcm bond, Zhan-1B, dichloromethane, 25.0 °C

**Q.** With `CN1C(=O)OCCCC=Cc2cc(F)ccc2CNC(=O)c2nc3n(c(=O)c2OS(C)(=O)=O)CCCCC31` (centres unmarked) as the compound, how does the ring closure, yield of all isomers (from C=CCCCOC(=O)N(C)C1CCCCn2c1nc(C(=O)NCc1ccc(F)cc1C=C)c(OS(C)(=O)=O)c2=O, 4.25 mM, 15.0 h) read?
**A.** Its ring closure, yield of all isomers is 97%.

**Q.** With `CC[C@H]1COC[C@@H]2c3nc(c(O)c(=O)n31)C(=O)NCc1ccc(F)cc1N(C)CCC=CC(=O)N2C` as the compound, how does the ring closure, yield of all isomers (from C=CCCN(C)c1cc(F)ccc1CNC(=O)c1nc2n(c(=O)c1O)[C@@H](CC)COC[C@H]2N(C)C(=O)C=C, 2.4 mM, 15.0 h) read?
**A.** The ring closure, yield of all isomers was 62%.

**Q.** For `CN1CC=Cc2cc(F)ccc2CNC(=O)c2nc3n(c(=O)c2OS(C)(=O)=O)CCCCC3N(C)C(=O)C1=O` (centres unmarked), which ring closure, yield of all isomers (from C=CCN(C)C(=O)C(=O)N(C)C1CCCCn2c1nc(C(=O)NCc1ccc(F)cc1C=C)c(OS(C)(=O)=O)c2=O, 2.6 mM, 60.0 h) is on record?
**A.** Its ring closure, yield of all isomers is 67%.

**Q.** Which ring closure, yield of all isomers (from C=CCCOc1cc(F)ccc1CNC(=O)c1nc2n(c(=O)c1O)CCCCC2N(C)C(=O)C=C, 5.14 mM, 15.0 h) does the source give for `CN1C(=O)C=CCCOc2cc(F)ccc2CNC(=O)c2nc3n(c(=O)c2O)CCCCC31` (centres unmarked) here?
**A.** The ring closure, yield of all isomers was 51%.

**Q.** Which ring closure, yield of all isomers (from C=CCCNc1cc(F)ccc1CNC(=O)c1nc2n(c(=O)c1O)CCCCC2N(C)C(=O)C=C, 2.0 mM, 20.0 h) does the source give for `CN1C(=O)C=CCCNc2cc(F)ccc2CNC(=O)c2nc3n(c(=O)c2O)CCCCC31` (centres unmarked) here?
**A.** The ring closure, yield of all isomers was 53%.

**Q.** With `CN1CCC=CC(=O)N(C)C2CCCCn3c2nc(c(O)c3=O)C(=O)NCc2ccc(F)cc21` (centres unmarked) as the compound, how does the ring closure, yield of all isomers (from C=CCCN(C)c1cc(F)ccc1CNC(=O)c1nc2n(c(=O)c1O)CCCCC2N(C)C(=O)C=C, 1.4 mM, 20.0 h) read?
**A.** The ring closure, yield of all isomers was 63%.

**Q.** For `CN1C(=O)CCCC=Cc2cc(F)ccc2CNC(=O)c2nc3n(c(=O)c2OS(C)(=O)=O)CCCCC31` (centres unmarked), which ring closure, yield of all isomers (from C=CCCCC(=O)N(C)C1CCCCn2c1nc(C(=O)NCc1ccc(F)cc1C=C)c(OS(C)(=O)=O)c2=O, 0.9 mM, 24.0 h) is on record?
**A.** The ring closure, yield of all isomers was 85%.

**Q.** Which ring closure, yield of all isomers (from C=CCCOc1cc(F)ccc1CNC(=O)c1nc2n(c(=O)c1O)[C@@H](CC)COC[C@H]2N(C)C(=O)C=C, 3.88 mM, 15.0 h) does the source give for `CC[C@H]1COC[C@@H]2c3nc(c(O)c(=O)n31)C(=O)NCc1ccc(F)cc1OCCC=CC(=O)N2C` here?
**A.** Its ring closure, yield of all isomers is 51%.
